Reference: ChEMBL document CHEMBL5335793, “PITB: A high affinity transthyretin aggregation inhibitor with optimal pharmacokinetic properties” (Eur J Med Chem, 2023)

Key:
Type in all cases: ADME, organism-based
Details in all cases: in vivo
[1] = Drug metabolism in CD-1 mouse assessed as 3-O-methylM23 formation by measuring Cmax at 1 mg/kg, iv measured for 24 hrs by UPLC-MS/MS analysis; design: dose 1 mg/kg, time 24 hrs, route iv
[2] = Half life in CD-1 mouse at 1 mg/kg, iv measured for 24 hrs by UPLC-MS/MS analysis
[3] = AUC (0 to 24 hrs) in CD-1 mouse at 1 mg/kg, iv by UPLC-MS/MS analysis; design: time 24 hrs, dose 1 mg/kg, route iv
[4] = Cmax in CD-1 mouse at 1 mg/kg, iv measured for 24 hrs by UPLC-MS/MS analysis; design: dose 1 mg/kg, time 24 hrs, route iv
[5] = Drug metabolism in CD-1 mouse assessed as 3-O-methylM23 formation by measuring AUC (0 to 24 hrs) at 1 mg/kg, iv by UPLC-MS/MS analysis; design: time 24 hrs, dose 1 mg/kg, route iv
[6] = Drug metabolism in CD-1 mouse assessed as 3-O-methylM23 formation by measuring half life at 1 mg/kg, iv measured for 24 hrs by UPLC-MS/MS analysis
[7] = Tmax in CD-1 mouse at 10 mg/kg, po measured for 24 hrs by UPLC-MS/MS analysis
[8] = Cmax in CD-1 mouse at 10 mg/kg, po measured for 24 hrs by UPLC-MS/MS analysis; design: dose 10 mg/kg, time 24 hrs, route po
[9] = AUC (0 to 24 hrs) in CD-1 mouse at 10 mg/kg, po measured for 24 hrs by UPLC-MS/MS analysis; design: time 24 hrs, dose 10 mg/kg, route po
[10] = Half life in CD-1 mouse at 10 mg/kg, po measured for 24 hrs by UPLC-MS/MS analysis
[11] = Drug metabolism in CD-1 mouse assessed as 3-O-methylM23 formation by measuring Tmax at 10 mg/kg, po measured for 24 hrs by UPLC-MS/MS analysis
[12] = Drug metabolism in CD-1 mouse assessed as 3-O-methylM23 formation by measuring Cmax at 10 mg/kg, po measured for 24 hrs by UPLC-MS/MS analysis; design: time 24 hrs, dose 10 mg/kg, route po
[13] = Drug metabolism in CD-1 mouse assessed as 3-O-methylM23 formation by measuring AUC (0 to 24 hrs) at 10 mg/kg, po by UPLC-MS/MS analysis; design: time 24 hrs, dose 10 mg/kg, route po
[14] = Drug metabolism in CD-1 mouse assessed as 3-O-methylM23 formation by measuring half life at 10 mg/kg, po measured for 24 hrs by UPLC-MS/MS analysis

Cmax [1]: 555.3 ng/mL | half-life [2]: 1.5 h | AUC(0-t) at 24 h [3]: 761 ng·h/mL | Cmax [4]: 1360 ng/mL | AUC [5]: 462.1 ng·h/mL | t1/2 [6]: 2.7 h | Tmax [7]: < 0.25 h | Cmax [8]: 744 ng/mL | AUC(0-t) at 24 h [9]: 866 ng·h/mL | half-life [10]: 0.9 h | Tmax [11]: < 0.25 h | Cmax [12]: 96.7 ng/mL | AUC [13]: 209.1 ng·h/mL | t1/2 [14]: 2.8 h
Compound: O=C(c1cc(O)cc(F)c1)c1cc(O)c(O)c([N+](=O)[O-])c1
